Measurements as given in ChEMBL document CHEMBL1201862, “PubChem BioAssay data set” (2004).
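All cell lines were grown in 96-well plates and treated with compound for 48 hours. Here, GI50 denotes the concentration required for 50% inhibition of growth.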 Calls of active or inactive are those of the source. No stated cut-off is given here; in the data, active = GI50 up to about 1.1 µM and inactive = higher.

Tests used:
Assay in all cases: DTP human tumour cell line panel, 48 h
CCRF-CEM = test system: CCRF-CEM
OVCAR-8 = test system: OVCAR-8
DU-145 = test system: DU-145
IGROV-1 = test system: IGROV-1
A498 = test system: A498
NCI-H226 = test system: NCI-H226
786-0 = test system: 786-0
HOP-92 = test system: HOP-92
HCT-116 = test system: HCT-116
UO-31 = test system: UO-31
BT-549 = test system: BT-549
RXF 393 = test system: RXF 393
HL-60 = test system: HL-60
NCI-H23 = test system: NCI-H23
SF-295 = test system: SF-295
Hs-578T = test system: Hs-578T
SNB-75 = test system: SNB-75
OVCAR-4 = test system: OVCAR-4
SK-OV-3 = test system: SK-OV-3
MDA-MB-435 = test system: MDA-MB-435
SN12C = test system: SN12C
A549 = test system: A549
OVCAR-3 = test system: OVCAR-3
SF-268 = test system: SF-268
PC-3 = test system: PC-3
OVCAR-5 = test system: OVCAR-5
SNB-19 = test system: SNB-19
UACC-62 = test system: UACC-62
HT-29 = test system: HT-29
Malme-3M = test system: Malme-3M
SR = test system: SR
NCI-H460 = test system: NCI-H460
SK-MEL-2 = test system: SK-MEL-2
M14 = test system: M14
UACC-257 = test system: UACC-257
ACHN = test system: ACHN
CAKI-1 = test system: CAKI-1
T47D = test system: T47D
HCT-15 = test system: HCT-15
K562 = test system: K562
NCI/ADR-RES = test system: NCI/ADR-RES
LOX IMVI = test system: LOX IMVI
MOLT-4 = test system: MOLT-4
MCF7 = test system: MCF7
SF-539 = test system: SF-539
MDA-MB-231 = test system: MDA-MB-231
SK-MEL-5 = test system: SK-MEL-5
TK-10 = test system: TK-10
HOP-62 = test system: HOP-62
EKVX = test system: EKVX
HCC 2998 = test system: HCC 2998
SW-620 = test system: SW-620
U-251 = test system: U-251
KM12 = test system: KM12
COLO 205 = test system: COLO 205
RPMI-8226 = test system: RPMI-8226
MDA-N = test system: MDA-N
NCI-H522 = test system: NCI-H522
SK-MEL-28 = test system: SK-MEL-28

O=[N+]([O-])c1nccn1CCCNc1ccnc2cc(Cl)ccc12
GI50 (CCRF-CEM): 5.38 µM (inactive)
GI50 (OVCAR-8): 7.4 µM (inactive)
GI50 (DU-145): > 7.74 µM (inactive)
GI50 (IGROV-1): 7.71 µM (inactive)
GI50 (A498): 5.08 µM (inactive)
GI50 (NCI-H226): 3.27 µM (inactive)
GI50 (786-0): 3.76 µM (inactive)
GI50 (HOP-92): > 7.98 µM (inactive)
GI50 (HCT-116): 3.47 µM (inactive)
GI50 (UO-31): 5.4 µM (inactive)
GI50 (BT-549): 8.69 µM (inactive)
GI50 (RXF 393): 4.26 µM (inactive)
GI50 (HL-60): 5 µM (inactive)
GI50 (NCI-H23): 5.52 µM (inactive)
GI50 (SF-295): 3.8 µM (inactive)
GI50 (Hs-578T): > 100 µM (inactive)
GI50 (SNB-75): 6.62 µM (inactive)
GI50 (OVCAR-4): 6.41 µM (inactive)
GI50 (SK-OV-3): 6.49 µM (inactive)
GI50 (MDA-MB-435): 6.71 µM (inactive)
GI50 (SN12C): 3.3 µM (inactive)
GI50 (A549): 5.43 µM (inactive)
GI50 (OVCAR-3): 1.77 µM (inactive)
GI50 (SF-268): 7.48 µM (inactive)
GI50 (PC-3): 5.09 µM (inactive)
GI50 (OVCAR-5): 14.4 µM (inactive)
GI50 (SNB-19): 4.06 µM (inactive)
GI50 (UACC-62): 6.21 µM (inactive)
GI50 (HT-29): 3.94 µM (inactive)
GI50 (Malme-3M): 29 µM (inactive)
GI50 (SR): 2.81 µM (inactive)
GI50 (NCI-H460): 3.12 µM (inactive)
GI50 (SK-MEL-2): 4.29 µM (inactive)
GI50 (M14): 4.5 µM (inactive)
GI50 (UACC-257): 3.44 µM (inactive)
GI50 (ACHN): 4.75 µM (inactive)
GI50 (CAKI-1): > 5.93 µM (inactive)
GI50 (T47D): 7.67 µM (inactive)
GI50 (HCT-15): 19.8 µM
GI50 (K562): 4.24 µM (inactive)
GI50 (NCI/ADR-RES): > 96.6 µM (inactive)
GI50 (LOX IMVI): 4.63 µM (inactive)
GI50 (MOLT-4): 3.64 µM (inactive)
GI50 (MCF7): 50 µM (inactive)
GI50 (SF-539): 5.48 µM (inactive)
GI50 (MDA-MB-231): 6.59 µM (inactive)
GI50 (SK-MEL-5): 2.29 µM (inactive)
GI50 (TK-10): 3.53 µM (inactive)
GI50 (HOP-62): 25.5 µM (inactive)
GI50 (EKVX): 1.93 µM (inactive)
GI50 (HCC 2998): 18.2 µM (inactive)
GI50 (SW-620): 4.23 µM (inactive)
GI50 (U-251): 6.82 µM (inactive)
GI50 (KM12): 5.37 µM (inactive)
GI50 (COLO 205): 3.05 µM (inactive)
GI50 (RPMI-8226): 4.34 µM (inactive)
GI50 (MDA-N): 7.29 µM (inactive)
GI50 (NCI-H522): 2.25 µM (inactive)
GI50 (SK-MEL-28): > 9.86 µM (inactive)

CN(C)c1cccc(/C=C(\C#N)c2ccccc2)c1
GI50 (CCRF-CEM): 0.794 µM (active)
GI50 (OVCAR-8): 1.01 µM (active)
GI50 (DU-145): 1.65 µM (inactive)
GI50 (IGROV-1): 1.11 µM (active)
GI50 (A498): 2.11 µM (inactive)
GI50 (NCI-H226): 2.55 µM (inactive)
GI50 (786-0): 2.21 µM (inactive)
GI50 (HOP-92): 2.94 µM (inactive)
GI50 (HCT-116): 0.396 µM (active)
GI50 (UO-31): 5.46 µM (inactive)
GI50 (BT-549): 21.3 µM (inactive)
GI50 (RXF 393): 0.706 µM (active)
GI50 (HL-60): 0.0865 µM (active)
GI50 (NCI-H23): 1.44 µM (inactive)
GI50 (SF-295): 0.574 µM (active)
GI50 (Hs-578T): 0.723 µM (active)
GI50 (SNB-75): 1.39 µM (inactive)
GI50 (OVCAR-4): 17.1 µM (inactive)
GI50 (SK-OV-3): 1.11 µM (active)
GI50 (MDA-MB-435): 0.0478 µM (active)
GI50 (SN12C): 1.15 µM (inactive)
GI50 (A549): 2.61 µM (inactive)
GI50 (OVCAR-3): 0.157 µM (active)
GI50 (SF-268): 8.77 µM (inactive)
GI50 (PC-3): 1.12 µM (active)
GI50 (OVCAR-5): 3.72 µM (inactive)
GI50 (SNB-19): 1.72 µM (inactive)
GI50 (UACC-62): 0.792 µM (active)
GI50 (HT-29): 0.213 µM (active)
GI50 (Malme-3M): 1.95 µM (inactive)
GI50 (SR): 0.0879 µM (active)
GI50 (NCI-H460): 0.527 µM (active)
GI50 (SK-MEL-2): 0.316 µM (active)
GI50 (M14): 0.277 µM (active)
GI50 (UACC-257): 1.01 µM (active)
GI50 (ACHN): 14.4 µM (inactive)
GI50 (CAKI-1): 0.771 µM (active)
GI50 (T47D): 0.525 µM (active)
GI50 (HCT-15): 0.219 µM
GI50 (K562): 0.0927 µM (active)
GI50 (NCI/ADR-RES): 0.257 µM (active)
GI50 (LOX IMVI): 0.406 µM (active)
GI50 (MOLT-4): 0.493 µM (active)
GI50 (MCF7): 0.218 µM (active)
GI50 (SF-539): 0.587 µM (active)
GI50 (MDA-MB-231): 1.11 µM (active)
GI50 (SK-MEL-5): 0.371 µM (active)
GI50 (TK-10): 0.944 µM (active)
GI50 (HOP-62): 0.164 µM (active)
GI50 (EKVX): 2.14 µM (inactive)
GI50 (HCC 2998): 0.565 µM (active)
GI50 (SW-620): 0.316 µM (active)
GI50 (U-251): 0.687 µM (active)
GI50 (KM12): 0.1 µM (active)
GI50 (COLO 205): 0.533 µM (active)
GI50 (RPMI-8226): 0.579 µM (active)
GI50 (MDA-N): 0.0451 µM (active)
GI50 (NCI-H522): 0.273 µM (active)
GI50 (SK-MEL-28): 7.33 µM (inactive)
